# Like-named read-outs stand apart in the source and are kept apart here.
# Tests used:
# [1] = logP; assay type: physicochemical; settings: Table 1; method not described
# [2] = tested on: RPMI-7951; assay: Cytotoxicity assay (MTS, 72 h); assay type: cell-based; settings: Homo sapiens, Table 1, read-out: IC50 (nM) Melanoma RPMI-7951
# [3] = tested on: MDA-MB-231; assay: Cytotoxicity assay (MTS, 72 h); assay type: cell-based; settings: Homo sapiens
# [4] = tested on: MDA-MB-468; assay: Cytotoxicity assay (MTS, 72 h); assay type: cell-based, human; settings: Table 1, read-out: IC50 (nM) Breast MDA-MB-468
# [5] = tested on: M14; assay: Cytotoxicity assay (MTS, 72 h); settings: Homo sapiens
# [6] = tested on: MDA-MB-453; assay: Cytotoxicity assay (MTS, 72 h); assay type: cell-based, human
# [7] = tested on: A375; assay: Cytotoxicity assay (MTS, 72 h);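 note: compounds tested from 0.1 nM up to 3 µM in four replicate wells, with absorbance read at 490 nm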
# [8] = tested on: Mia PaCa-2; assay: Cytotoxicity assay (MTS, 72 h); assay type: cell-based; settings: Homo sapiens
# [9] = tested on: PANC-1; assay: Cytotoxicity assay (MTS, 72 h); assay type: cell-based; settings: Homo sapiens
# Protocol: Mia PaCa-2 and PANC-1 cells were seeded in 96-well plates at 4000 and 5000 cells per well, respectively.
# Cytotoxicity Assay. […] Each experiment consisted of four replicates.
# [10] = MDA-MB-231, read-out: IC50 (nM) Breast MDA-MB-231, Table 1
# [11] = M14, read-out: IC50 (nM) Melanoma M14
# [12] = Homo sapiens, A-375, read-out: IC50 (nM) Melanoma A375, Table 1
# [13] = MDA-MB-231, read-out: IC50 Breast Cancer MDA-MB-231, Table 6, cells printed in μM
# [14] = M14, read-out: IC50 Melanoma Cancer M14
# [15] = Homo sapiens, MDA-MB-453, Table 6, cells printed in μM, read-out: IC50 Breast Cancer MDA-MB-453
# [16] = Homo sapiens, A-375, read-out: IC50 Melanoma Cancer A375, Table 6, cells printed in μM
# [17] = MDA-MB-231, read-out: IC50 (nM) Breast Cancer MDA-MB-231, Table 6
# [18] = Table 6, read-out: IC50 (nM) Pancreatic cancer Mia PaCa-2
# [19] = M14, read-out: IC50 (nM) Melanoma Cancer M14
# [20] = Table 6, read-out: IC50 (nM) Pancreatic cancer PANC-1
# [21] = Homo sapiens, A-375, read-out: IC50 (nM) Melanoma Cancer A375, Table 6
# [22] = Table 6, cells printed in μM, read-out: IC50 Pancreatic cancer Mia PaCa-2
# [23] = Table 6, cells printed in μM, read-out: IC50 Pancreatic cancer PANC-1
# [24] = Homo sapiens, MDA-MB-453, Table 6, read-out: IC50 (nM) Breast Cancer MDA-MB-453
# [25] = Homo sapiens, MDA-MB-453, Table 1, read-out: IC50 (nM) Breast MDA-MB-453
SMILES,logP [1],IC50 [2] [nM],"IC50 [3, 10] [nM]","IC50 [5, 11] [nM]","IC50 [7, 12] [nM]","IC50 [7, 16] [nM]","IC50 [3, 17] [nM]","IC50 [5, 19] [nM]","IC50 [7, 21] [nM]","IC50 [8, 22] [nM]","IC50 [9, 23] [nM]","IC50 [6, 24] [nM]",further results
"COc1ccc2c(c1)NC(=O)CN2c1nc(C)nc(C)c1C [Compound 5r, 7-methoxy-4-(2,5,6-trimethylpyrimidin-4-yl)-3,4-dihydroquinoxalin-2(1H)-one]",2.97,8.9 ± 1.5,18 ± 2.7,9.8 ± 1.7,9 ± 1,,,,,,,,"IC50 [4]: 5.2 ± 2.2 nM; IC50 ([6]; Table 1, read-out: IC50 (nM) Breast MDA-MB-453): 4.3 ± 0.9 nM"
"COc1ccc2c(c1)[nH]c(=O)c(=O)n2-c1nc(S(C)(=O)=O)nc2c1CCC2 [Compound 15, 6-methoxy-1-(2-(methylsulfone)-6,7-dihydro-5H-cyclopenta[d]pyrimidin-4-yl)quinoxaline-2,3(1H,4H)-dione]",,,,,,> 3000,,,,,,,"IC50 [3, 13]: > 3000 nM; IC50 [5, 14]: > 3000 nM; IC50 [6, 15]: > 3000 nM"
"COc1ccc2c(c1)[nH]c(=O)c(=O)n2-c1nc(SC)nc2c1CCC2 [Compound 14, 6-methoxy-1-(2-(methylthio)-6,7-dihydro-5H-cyclopenta[d]pyrimidin-4-yl)quinoxaline-2,3(1H,4H)-dione]",,,,,,> 3000,,,,,,,
"Cc1nc2c(c(-n3c(=O)[nH]c4cc(OC(F)(F)F)ccc43)n1)CCC2 [Compound 18a, 1-(2-methyl-6,7-dihydro-5H-cyclopenta[d]pyrimidin-4-yl)-5-(trifluoromethoxy)-1H-benzo[d]imidazol-2-one]",,,,,,,919 ± 722,1080 ± 682,238 ± 126,,,,"IC50 [8, 18]: 667 ± 652 nM; IC50 [9, 20]: 164 ± 98.2 nM"
"COc1ccc2c(c1)[nH]c(=O)c(=O)n2-c1nc(OC)nc2c1CCC2 [Compound 16, 6-methoxy-1-(2-methoxy-6,7-dihydro-5H-cyclopenta[d]pyrimidin-4-yl)quinoxaline-2,3(1H,4H)-dione]",,,,,,> 3000,,,,> 1250,> 1250,,"IC50 [3, 13]: > 3000 nM; IC50 [5, 14]: > 3000 nM; IC50 [6, 15]: > 3000 nM"
"COc1ccc2c(c1)NC(=O)CN2c1nc(N2CCCC2)nc2c1CCC2 [Compound 12g, 7-methoxy-4-(2-(pyrrolidin-1-yl)-6,7-dihydro-5H-cyclopenta[d]pyrimidin-4-yl)-3,4-dihydroquinoxalin-2(1H)-one]",,,,,,,119 ± 20.5,84.7 ± 17.6,~82.1,,,98.1 ± 23.3,"IC50 [8, 18]: 508 ± 59.1 nM; IC50 [9, 20]: 213 ± 47.6 nM; IC50 ([7]; read-out: IC50 (nM) Melanoma Cancer A375, Table 6): 82.2 ± 12.9 nM"
"COc1cc2c(cc1F)N(c1nc(Cl)nc3cccnc13)CC(=O)N2 [Compound 5i, 4-(2-chloropyrido[3,2-d]pyrimidin-4-yl)-6-fluoro-7-methoxy-3,4-dihydroquinoxalin-2(1H)-one]",2.23,> 1000,> 1000,> 1000,> 1000,,,,,,,,"IC50 ([4]; Homo sapiens, MDA-MB-468): 940 ± 300 nM; IC50 [6, 25]: 693 ± 102 nM"
"COc1ccc2c(c1)[nH]c(=O)n2-c1nc(SC)nc2c1CCC2 [Compound 18, 5-methoxy-1-(2-(methylthio)-6,7-dihydro-5H-cyclopenta[d]pyrimidin-4-yl)-1H-benzo[d]imidazol-2(3H)-one]",,,,,,,1340 ± 409,1110 ± 306,1180 ± 339,> 1250,> 1250,2180 ± 861,
"COc1ccc2c(c1)NC(=O)CN2c1nc(S(C)(=O)=O)nc2c1CCC2 [Compound 11, 7-methoxy-4-(2-(methylsulfonyl)-6,7-dihydro-5H-cyclopenta[d]pyrimidin-4-yl)-3,4-dihydroquinoxalin-2(1H) one]",,,,,,,191 ± 32,62.2 ± 10.8,~84.9,> 1250,> 1250,58.8 ± 16.3,
"COc1ccc2c(c1)NC(=O)CN2c1nc(C)nc2onc(C)c12 [Compound 5k, 4-(3,6-dimethylisoxazolo[5,4-d]pyrimidin-4-yl)-7-methoxy-3,4-dihydroquinoxalin-2(1H)-one]",2.46,7 ± 2.3,9.3 ± 1.6,6.7 ± 2.2,14.3 ± 4.1,,,,,,,,"IC50 ([4]; Homo sapiens, MDA-MB-468): 7.5 ± 1.6 nM; IC50 [6, 25]: 4.6 ± 1.1 nM"

# Source: patent publication US20230286995A1, “METABOLICALLY STABLE PYRIMIDINYL DIHYDROQUINOXALINONES AS TUBULIN POLYMERIZATION INHIBITORS” (UNIVERSITY OF TENNESSEE RESEARCH FOUNDATION, priority 2022, published 2023)
